Measured values as given in patent publication US20090304692A1, “TRIAZINE COMPOUNDS AS PI3 KINASE AND MTOR INHIBITORS” (Wyeth, priority 2008, published 2009).
Like-named read-outs stand apart in the source and are kept apart here.

Experiments:
[1] = tested on: human prostate LNCap tumor cell line; assay: In vitro cell culture growth assay (MTS), LNCap; conditions: read-out: IC50 LNCap
PI3K-α = PI3K-α (Homo sapiens, UniProt P42336); assay: PI3K-alpha fluorescence polarization assay; conditions: read-out: IC50 PI3Kα
Sequence of PI3K-α (P42336 whole entry, species assumed): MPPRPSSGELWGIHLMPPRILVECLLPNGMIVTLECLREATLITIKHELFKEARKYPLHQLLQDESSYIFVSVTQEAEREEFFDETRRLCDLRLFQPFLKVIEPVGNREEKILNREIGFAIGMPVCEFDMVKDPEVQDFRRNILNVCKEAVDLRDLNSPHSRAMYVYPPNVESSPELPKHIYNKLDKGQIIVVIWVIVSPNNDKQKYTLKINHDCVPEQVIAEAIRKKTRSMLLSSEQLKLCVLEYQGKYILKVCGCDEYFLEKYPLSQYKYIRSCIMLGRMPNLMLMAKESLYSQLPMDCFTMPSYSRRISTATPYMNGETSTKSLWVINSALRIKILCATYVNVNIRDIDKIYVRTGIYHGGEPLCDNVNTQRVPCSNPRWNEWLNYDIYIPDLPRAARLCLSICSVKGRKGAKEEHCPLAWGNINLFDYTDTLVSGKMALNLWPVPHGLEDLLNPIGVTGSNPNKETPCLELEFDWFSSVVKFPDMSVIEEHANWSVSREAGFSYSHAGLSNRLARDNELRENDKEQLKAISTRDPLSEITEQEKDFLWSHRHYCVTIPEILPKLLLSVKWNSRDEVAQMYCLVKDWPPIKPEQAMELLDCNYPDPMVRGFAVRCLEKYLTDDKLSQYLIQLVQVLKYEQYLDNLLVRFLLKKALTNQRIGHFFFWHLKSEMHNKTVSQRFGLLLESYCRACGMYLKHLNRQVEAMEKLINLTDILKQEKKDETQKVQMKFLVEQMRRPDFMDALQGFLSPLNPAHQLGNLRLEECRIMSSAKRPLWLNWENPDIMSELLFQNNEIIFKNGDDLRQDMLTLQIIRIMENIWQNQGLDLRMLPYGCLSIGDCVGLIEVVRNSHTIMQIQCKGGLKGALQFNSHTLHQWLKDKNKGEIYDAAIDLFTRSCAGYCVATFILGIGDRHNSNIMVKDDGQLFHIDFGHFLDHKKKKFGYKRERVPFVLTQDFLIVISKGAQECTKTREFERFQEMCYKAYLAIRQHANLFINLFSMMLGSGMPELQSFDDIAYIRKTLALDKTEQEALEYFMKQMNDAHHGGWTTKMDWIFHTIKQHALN
Sequence of PI3K-α (P27986 whole entry partner, species assumed): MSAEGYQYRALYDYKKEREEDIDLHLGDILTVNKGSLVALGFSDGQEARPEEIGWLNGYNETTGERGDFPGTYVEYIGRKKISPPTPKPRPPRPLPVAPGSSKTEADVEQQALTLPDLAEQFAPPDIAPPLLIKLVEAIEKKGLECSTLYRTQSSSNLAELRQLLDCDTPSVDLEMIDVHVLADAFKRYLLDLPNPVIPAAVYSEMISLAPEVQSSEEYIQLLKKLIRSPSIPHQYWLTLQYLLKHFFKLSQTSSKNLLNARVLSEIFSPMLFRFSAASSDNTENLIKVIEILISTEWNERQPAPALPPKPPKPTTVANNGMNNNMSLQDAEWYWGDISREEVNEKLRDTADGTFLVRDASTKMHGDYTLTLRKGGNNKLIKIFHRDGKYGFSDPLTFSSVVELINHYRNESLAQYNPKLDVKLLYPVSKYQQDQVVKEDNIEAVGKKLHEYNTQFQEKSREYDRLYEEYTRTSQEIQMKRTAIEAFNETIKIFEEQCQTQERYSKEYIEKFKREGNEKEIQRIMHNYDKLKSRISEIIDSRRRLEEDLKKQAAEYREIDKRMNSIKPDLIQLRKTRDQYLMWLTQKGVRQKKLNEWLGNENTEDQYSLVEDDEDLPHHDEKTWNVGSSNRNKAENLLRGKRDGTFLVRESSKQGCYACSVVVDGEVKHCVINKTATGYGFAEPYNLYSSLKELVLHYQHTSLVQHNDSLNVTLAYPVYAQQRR

Human mTOR (FLAG-TOR) = Human mTOR (FLAG-TOR) (Homo sapiens, UniProt P42345); assay: mTOR kinase assay (DELFIA format, purified enzyme); format: biochemical; conditions: read-out: IC50 mTOR
Sequence of Human mTOR (FLAG-TOR) (P42345 1360-2549 limits assumed): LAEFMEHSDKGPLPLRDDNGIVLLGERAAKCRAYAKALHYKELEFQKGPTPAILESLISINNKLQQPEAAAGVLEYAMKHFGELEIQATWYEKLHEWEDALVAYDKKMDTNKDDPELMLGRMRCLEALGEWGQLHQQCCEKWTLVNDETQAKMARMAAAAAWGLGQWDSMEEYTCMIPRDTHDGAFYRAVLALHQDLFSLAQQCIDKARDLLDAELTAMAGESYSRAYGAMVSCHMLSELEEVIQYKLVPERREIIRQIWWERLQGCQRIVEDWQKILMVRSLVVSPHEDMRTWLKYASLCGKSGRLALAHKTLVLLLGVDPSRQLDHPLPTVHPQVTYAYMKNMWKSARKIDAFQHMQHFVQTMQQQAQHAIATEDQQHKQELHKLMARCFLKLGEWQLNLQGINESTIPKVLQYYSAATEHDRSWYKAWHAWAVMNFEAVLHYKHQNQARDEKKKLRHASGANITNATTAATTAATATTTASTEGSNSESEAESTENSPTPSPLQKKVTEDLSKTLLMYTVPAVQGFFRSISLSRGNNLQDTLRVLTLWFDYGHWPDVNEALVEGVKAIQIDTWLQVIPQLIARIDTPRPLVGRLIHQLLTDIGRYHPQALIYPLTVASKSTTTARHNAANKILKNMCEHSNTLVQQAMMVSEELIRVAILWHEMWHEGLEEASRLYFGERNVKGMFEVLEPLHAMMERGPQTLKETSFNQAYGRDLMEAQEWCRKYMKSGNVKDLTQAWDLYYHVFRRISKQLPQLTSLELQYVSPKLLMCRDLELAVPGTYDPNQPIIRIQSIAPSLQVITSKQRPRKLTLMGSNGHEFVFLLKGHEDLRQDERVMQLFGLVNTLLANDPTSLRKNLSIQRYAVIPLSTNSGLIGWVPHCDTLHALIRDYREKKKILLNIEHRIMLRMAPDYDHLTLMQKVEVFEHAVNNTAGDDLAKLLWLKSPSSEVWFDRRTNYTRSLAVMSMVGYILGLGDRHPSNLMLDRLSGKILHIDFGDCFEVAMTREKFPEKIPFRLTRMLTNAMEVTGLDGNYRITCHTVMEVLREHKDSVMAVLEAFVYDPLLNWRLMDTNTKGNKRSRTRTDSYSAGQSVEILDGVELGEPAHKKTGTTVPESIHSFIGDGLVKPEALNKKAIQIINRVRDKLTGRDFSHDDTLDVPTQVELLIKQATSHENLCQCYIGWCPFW

PI3K-γ = PI3K-γ (Homo sapiens, UniProt P48736); assay: PI3K-gamma fluorescence polarization assay
Sequence of PI3K-γ (P48736 whole entry, species assumed): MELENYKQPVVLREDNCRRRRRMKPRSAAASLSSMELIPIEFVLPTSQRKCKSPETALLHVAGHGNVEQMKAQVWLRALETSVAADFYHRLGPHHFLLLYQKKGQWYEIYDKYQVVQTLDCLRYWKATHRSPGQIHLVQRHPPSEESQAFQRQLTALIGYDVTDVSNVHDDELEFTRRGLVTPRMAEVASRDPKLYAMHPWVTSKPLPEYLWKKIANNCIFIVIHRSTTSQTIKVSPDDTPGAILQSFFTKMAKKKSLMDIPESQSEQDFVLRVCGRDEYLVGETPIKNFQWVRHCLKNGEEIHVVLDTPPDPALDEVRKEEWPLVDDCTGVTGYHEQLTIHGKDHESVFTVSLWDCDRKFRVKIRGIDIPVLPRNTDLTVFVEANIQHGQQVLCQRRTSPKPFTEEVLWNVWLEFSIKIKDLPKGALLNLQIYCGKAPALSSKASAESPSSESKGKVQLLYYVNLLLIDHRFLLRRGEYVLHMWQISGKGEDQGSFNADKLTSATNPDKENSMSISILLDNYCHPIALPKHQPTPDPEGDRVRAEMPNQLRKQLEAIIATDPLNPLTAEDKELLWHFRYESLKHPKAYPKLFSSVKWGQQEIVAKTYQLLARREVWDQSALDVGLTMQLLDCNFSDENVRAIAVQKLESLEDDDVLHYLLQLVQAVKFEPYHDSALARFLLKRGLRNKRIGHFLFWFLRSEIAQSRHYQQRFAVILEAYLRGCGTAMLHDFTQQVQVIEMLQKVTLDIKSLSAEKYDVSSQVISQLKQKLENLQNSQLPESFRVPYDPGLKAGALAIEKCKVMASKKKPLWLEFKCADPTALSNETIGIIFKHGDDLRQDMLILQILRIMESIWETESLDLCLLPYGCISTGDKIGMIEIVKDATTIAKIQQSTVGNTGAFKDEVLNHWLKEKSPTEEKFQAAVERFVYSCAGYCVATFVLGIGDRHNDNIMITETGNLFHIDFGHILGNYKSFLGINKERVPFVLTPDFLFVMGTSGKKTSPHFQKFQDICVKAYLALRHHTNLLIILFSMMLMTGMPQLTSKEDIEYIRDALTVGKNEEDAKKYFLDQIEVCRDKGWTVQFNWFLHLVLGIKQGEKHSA

Molecule: CC(=O)N1CCN(c2nc(-c3ccc(NC(=O)Nc4ccncc4)cc3)nc(N3CC4CCC(C3)O4)n2)CC1 [Example 111, 1-{4-[4-(4-acetylpiperazin-1-yl)-6-(8-oxa-3-azabicyclo[3.2.1]oct-3-yl)-1,3,5-triazin-2-yl]phenyl}-3-pyridin-4-ylurea]
- IC50 ([1]; Homo sapiens, LNCaP, 72 h): 58 nM
- IC50 (PI3K-α): 116 nM
- IC50 (Human mTOR (FLAG-TOR)): 2.3 nM
- IC50 (PI3K-γ; read-out: IC50 PI3Kγ): 1830 nM

Molecule: CNC(=O)Nc1ccc(-c2nc(NC(C)C)nc(N3CC4CCC(C3)O4)n2)cc1 [Example 212, 1-methyl-3-(4-{4-[(1-methylethyl)amino]-6-(8-oxa-3-azabicyclo[3.2.1]oct-3-yl)-1,3,5-triazin-2-yl}phenyl)urea]
- IC50 ([1]; Homo sapiens, LNCaP, 72 h): 420 nM
- IC50 (PI3K-α): 902 nM
- IC50 (Human mTOR (FLAG-TOR)): 6.4 nM
- IC50 (PI3K-γ; read-out: IC50 PI3Kγ): 8770 nM

Molecule: O=C(Nc1ccncc1)Nc1ccc(-c2nc(N3CCN(Cc4cccnc4)CC3)nc(N3CC4CCC(C3)O4)n2)cc1 [Example 110, 1-(4-{4-(8-oxa-3-azabicyclo[3.2.1]oct-3-yl)-6-[4-(pyridin-3-ylmethyl)piperazin-1-yl]-1,3,5-triazin-2-yl}phenyl)-3-pyridin-4-ylurea]
- IC50 ([1]; Homo sapiens, LNCaP, 72 h): 220 nM
- IC50 (PI3K-α): 884 nM
- IC50 (Human mTOR (FLAG-TOR)): 29 nM
- IC50 (PI3K-γ; read-out: IC50 PI3Kγ): 3510 nM

Molecule: CC(C)Nc1nc(-c2ccc(NC(=O)Nc3ccc(C(=O)NN(C)C)cc3)cc2)nc(N2CC3CCC(C2)O3)n1 [Example 218, 1-{4-[(2,2-dimethylhydrazino)carbonyl]phenyl}-3-(4-{4-[(1-methylethyl)amino]-6-(8-oxa-3-azabicyclo[3.2.1]oct-3-yl)-1,3,5-triazin-2-yl}phenyl)urea]
- IC50 ([1]; Homo sapiens, LNCaP, 72 h): 12 nM
- IC50 (PI3K-α): 279 nM
- IC50 (Human mTOR (FLAG-TOR)): 2.6 nM
- IC50 (PI3K-γ; read-out: IC50 PI3Kγ): 2780 nM

Molecule: C[C@@H]1COCCN1c1nc(-c2ccc(NC(=O)Nc3cccnc3)cc2)nc(N2C3CCC2COC3)n1 [Example 415, 1-(4-(4-(3-oxa-8-azabicyclo[3.2.1]octan-8-yl)-6-((R)-3-methylmorpholino)-1,3,5-triazin-2-yl)phenyl)-3-(pyridin-3-yl)urea]
- IC50 ([1]; Homo sapiens, LNCaP, 72 h): 29 nM
- IC50 (PI3K-α): 787 nM
- IC50 (Human mTOR (FLAG-TOR)): 0.38 nM
- IC50 (PI3K-γ; read-out: IC50 PI3Kγ): 3260 nM

Molecule: CC(C)Nc1nc(-c2ccc(NC(=O)Nc3ccc(CO)cc3)cc2)nc(N2CC3CCC(C2)O3)n1 [Example 221, 1-[4-(hydroxymethyl)phenyl]-3-(4-{4-[(1-methylethyl)amino]-6-(8-oxa-3-azabicyclo[3.2.1]oct-3-yl)-1,3,5-triazin-2-yl}phenyl)urea]
- IC50 ([1]; Homo sapiens, LNCaP, 72 h): 120 nM
- IC50 (PI3K-α): 214 nM
- IC50 (Human mTOR (FLAG-TOR)): 2.7 nM
- IC50 (PI3K-γ; read-out: IC50 PI3Kγ): 4280 nM

Molecule: CC(C)N1CCN(c2ccc(NC(=O)Nc3ccc(-c4nc(C5CCOCC5)nc(N5CCOC[C@H]5C)n4)cc3)cc2)CC1 [Example 429, (R)-1-(4-(4-isopropylpiperazin-1-yl)phenyl)-3-(4-(4-(3-methylmorpholino)-6-(tetrahydro-2H-pyran-4-yl)-1,3,5-triazin-2-yl)phenyl)urea]
- IC50 ([1]; Homo sapiens, LNCaP, 72 h): 9 nM
- IC50 (PI3K-α): 483 nM
- IC50 (Human mTOR (FLAG-TOR)): 1.9 nM
- IC50 (PI3K-γ; read-out: IC50 PI3Kγ): 1000 nM

Molecule: C[C@@H]1COCCN1c1nc(-c2ccc(NC(=O)Nc3ccc(N4CCN(C)CC4)cc3)cc2)nc(C2CCOCC2)n1 [Example 421, (R)-1-(4-(4-(3-methylmorpholino)-6-(tetrahydro-2H-pyran-4-yl)-1,3,5-triazin-2-yl)phenyl)-3-(4-(4-methylpiperazin-1-yl)phenyl)urea]
- IC50 ([1]; Homo sapiens, LNCaP, 72 h): 1 nM
- IC50 (PI3K-α): 414 nM
- IC50 (Human mTOR (FLAG-TOR)): 0.72 nM
- IC50 (PI3K-γ; read-out: IC50 PI3Kγ): 1570 nM

Molecule: CC(C)N(C)c1nc(-c2ccc(NC(=O)Nc3ccc(CN(C)C)cc3)cc2)nc(N2C3CCC2COC3)n1 [Example 390, 1-(4-(4-(3-oxa-8-azabicyclo[3.2.1]octan-8-yl)-6-(isopropyl(methyl)amino)-1,3,5-triazin-2-yl)phenyl)-3-(4-((dimethylamino)methyl)phenyl)urea]
- IC50 ([1]; Homo sapiens, LNCaP, 72 h): 650 nM
- IC50 (PI3K-α): 2470 nM
- IC50 (Human mTOR (FLAG-TOR)): 12 nM
- IC50 (PI3K-γ; read-out: IC50 PI3Kγ): 2350 nM

Molecule: C[C@@H]1COCCN1c1nc(-c2ccc(NC(=O)Nc3ccc(N4CCN(C)CC4)cc3)cc2)nc(N2CCOC[C@H]2C)n1 [Example 399, 1-(4-(4,6-bis((R)-3-methylmorpholino)-1,3,5-triazin-2-yl)phenyl)-3-(4-(4-methylpiperazin-1-yl)phenyl)urea]
- IC50 ([1]; Homo sapiens, LNCaP, 72 h): 3 nM
- IC50 (PI3K-α): 330 nM
- IC50 (Human mTOR (FLAG-TOR)): 1.1 nM
- IC50 (PI3K-γ; read-out: IC50 PI3Kγ): 1690 nM

Molecule: C[C@@H]1COCCN1c1nc(-c2ccc(NC(=O)Nc3ccc(C(=O)N4CCN(C)CC4)cc3)cc2)nc(N2CCOC[C@H]2C)n1 [Example 450, 1-(4-(4,6-bis((R)-3-methylmorpholino)-1,3,5-triazin-2-yl)phenyl)-3-(4-(4-methylpiperazine-1-carbonyl)phenyl)urea]
- IC50 ([1]; Homo sapiens, LNCaP, 72 h): < 0.8 nM
- IC50 (PI3K-α): 76 nM
- IC50 (Human mTOR (FLAG-TOR)): 1.7 nM
- IC50 (PI3K-γ; read-out: IC50 PI3Kγ): 888 nM

Molecule: CC(C)Nc1nc(-c2ccc(NC(=O)Nc3ccc(N4CCNCC4)cc3)cc2)nc(N2C3CCC2COC3)n1 [Example 387, 1-(4-(4-(3-oxa-8-azabicyclo[3.2.1]octan-8-yl)-6-(isopropylamino)-1,3,5-triazin-2-yl)phenyl)-3-(4-(piperazin-1-yl)phenyl)urea]
- IC50 ([1]; Homo sapiens, LNCaP, 72 h): 70 nM
- IC50 (PI3K-α): 3420 nM
- IC50 (Human mTOR (FLAG-TOR)): 3.2 nM
- IC50 (PI3K-γ; read-out: IC50 PI3Kγ): 2860 nM

Molecule: 1-(4-(4-(3-oxa-8-azabicyclo[3.2.1]octan-8-yl)-6-(piperidin-4-ylamino)-1,3,5-triazin-2-yl)phenyl)-3-ethylurea [Example 362]
- IC50 ([1]; MTS cell growth assay, three days after drug treatment): 1 nM
- IC50 (PI3K-α): 3090 nM
- IC50 (Human mTOR (FLAG-TOR)): 0.74 nM
- IC50 (PI3K-γ; read-out: IC50 PI3Kγ): > 10000 nM

Molecule: CC(C)Oc1nc(-c2ccc(NC(=O)Nc3ccncc3)cc2)nc(N2CC3CCC(C2)O3)n1 [Example 158, 1-{4-[4-isopropoxy-6-(8-oxa-3-azabicyclo[3.2.1]oct-3-yl)-1,3,5-triazin-2-yl]phenyl}-3-pyridin-4-ylurea]
- IC50 ([1]; Homo sapiens, LNCaP, 72 h): 49 nM
- IC50 (PI3K-α): 300 nM
- IC50 (Human mTOR (FLAG-TOR)): 7 nM
- IC50 (PI3K-γ; read-out: IC50 PI3Kγ): 1290 nM

Molecule: CC(C)Nc1nc(-c2ccc(NC(=O)Nc3ccc(N4CCN(C)CC4)cc3)cc2)nc(N2CC3CCC(C2)O3)n1 [Example 217, 1-(4-{4-[(1-methylethyl)amino]-6-(8-oxa-3-azabicyclo[3.2.1]oct-3-yl)-1,3,5-triazin-2-yl}phenyl)-3-[4-(4-methylpiperazin-1-yl)phenyl]urea]
- IC50 ([1]; Homo sapiens, LNCaP, 72 h): 13 nM
- IC50 (PI3K-α): 253 nM
- IC50 (Human mTOR (FLAG-TOR)): 3.2 nM
- IC50 (PI3K-γ; read-out: IC50 PI3Kγ): 3230 nM

Molecule: CC(C)(CO)Nc1nc(-c2ccc(NC(=O)Nc3cccnc3)cc2)nc(N2CC3CCC(C2)O3)n1 [Example 261, 1-(4-{4-[(2-hydroxy-1,1-dimethylethyl)amino]-6-(8-oxa-3-azabicyclo[3.2.1]oct-3-yl)-1,3,5-triazin-2-yl}phenyl)-3-pyridin-3-ylurea]
- IC50 ([1]; Homo sapiens, LNCaP, 72 h): 30 nM
- IC50 (PI3K-α): 158 nM
- IC50 (Human mTOR (FLAG-TOR)): 0.31 nM
- IC50 (PI3K-γ; read-out: IC50 PI3Kγ): 2530 nM

Molecule: CC(C)Nc1nc(-c2ccc(NC(=O)Nc3ccc(CN4CCN(C)CC4)cc3)cc2)nc(N2C3CCC2COC3)n1 [Example 379, 1-(4-(4-(3-oxa-8-azabicyclo[3.2.1]octan-8-yl)-6-(isopropylamino)-1,3,5-triazin-2-yl)phenyl)-3-(4-((4-methylpiperazin-1-yl)methyl)phenyl)urea]
- IC50 ([1]; Homo sapiens, LNCaP, 72 h): 140 nM
- IC50 (PI3K-α): 4750 nM
- IC50 (Human mTOR (FLAG-TOR)): 7.3 nM
- IC50 (PI3K-γ; read-out: IC50 PI3Kγ): 5260 nM

Molecule: COCC(COC)Oc1nc(-c2ccc(NC(=O)OCCO)cc2)nc(N2CC3CCC(C2)O3)n1 [Example 176, 2-hydroxyethyl (4-{4-[2-methoxy-1-(methoxymethyl)ethoxy]-6-(8-oxa-3-azabicyclo[3.2.1]oct-3-yl)-1,3,5-triazin-2-yl}phenyl)carbamate]
- IC50 ([1]; Homo sapiens, LNCaP, 72 h): 1000 nM
- IC50 (PI3K-α): 1120 nM
- IC50 (Human mTOR (FLAG-TOR)): 22 nM
- IC50 (PI3K-γ; read-out: IC50 PI3Kγ): 3730 nM

Molecule: C[C@@H]1COCCN1c1nc(-c2ccc(NC(=O)Nc3cccnc3)cc2)nc(N2C[C@@H]3C[C@H]2CO3)n1 [Example 411, 1-(4-(4-((1S,4S)-2-oxa-5-azabicyclo[2.2.1]heptan-5-yl)-6-((R)-3-methylmorpholino)-1,3,5-triazin-2-yl)phenyl)-3-(pyridin-3-yl)urea]
- IC50 ([1]; Homo sapiens, LNCaP, 72 h): 250 nM
- IC50 (PI3K-α): 1900 nM
- IC50 (Human mTOR (FLAG-TOR)): 3.6 nM
- IC50 (PI3K-γ): > 10000 nM

Molecule: O=C(CN1CCCC1)Nc1ccc(NC(=O)Nc2ccc(-c3nc(N4C5CCC4COC5)nc(N4C5CCC4COC5)n3)cc2)cc1 [Example 375, N-(4-(3-(4-(4,6-di(3-oxa-8-azabicyclo[3.2.1]octan-8-yl)-1,3,5-triazin-2-yl)phenyl)ureido)phenyl)-2-(pyrrolidin-1-yl)acetamide]
- IC50 ([1]; Homo sapiens, LNCaP, 72 h): < 0.8 nM
- IC50 (PI3K-α): 44 nM
- IC50 (Human mTOR (FLAG-TOR)): 0.15 nM
- IC50 (PI3K-γ; read-out: IC50 PI3Kγ): 2590 nM

Molecule: CC(C)Nc1nc(-c2ccc(NC(=O)Nc3cccnc3)cc2)nc(N2CC3CCC(C2)O3)n1 [Example 193, 1-{4-[4-(isopropylamino)-6-(8-oxa-3-azabicyclo[3.2.1]oct-3-yl)-1,3,5-triazin-2-yl]phenyl}-3-pyridin-3-ylurea]
- IC50 ([1]; Homo sapiens, LNCaP, 72 h): 105 nM
- IC50 (PI3K-α): 401 nM
- IC50 (Human mTOR (FLAG-TOR)): 0.8 nM
- IC50 (PI3K-γ; read-out: IC50 PI3Kγ): 3130 nM

Molecule: CN(C)c1nc(-c2ccc(NC(=O)Nc3cccnc3)cc2)nc(N2CC3CCC(C2)O3)n1 [Example 192, 1-{4-[4-(dimethylamino)-6-(8-oxa-3-azabicyclo[3.2.1]oct-3-yl)-1,3,5-triazin-2-yl]phenyl}-3-pyridin-3-ylurea]
- IC50 ([1]; Homo sapiens, LNCaP, 72 h): 620 nM
- IC50 (PI3K-α): 1120 nM
- IC50 (Human mTOR (FLAG-TOR)): 43 nM
- IC50 (PI3K-γ; read-out: IC50 PI3Kγ): 453 nM

Molecule: CC(C)Nc1nc(-c2ccc(NC(=O)Nc3ccc(CN4CCCC4)cc3)cc2)nc(N2C3CCC2COC3)n1 [Example 383, 1-(4-(4-(3-oxa-8-azabicyclo[3.2.1]octan-8-yl)-6-(isopropylamino)-1,3,5-triazin-2-yl)phenyl)-3-(4-(pyrrolidin-1-ylmethyl)phenyl)urea]
- IC50 ([1]; Homo sapiens, LNCaP, 72 h): 150 nM
- IC50 (PI3K-α): 2980 nM
- IC50 (Human mTOR (FLAG-TOR)): 6.1 nM
- IC50 (PI3K-γ; read-out: IC50 PI3Kγ): 3610 nM

Molecule: COCC(COC)Oc1nc(-c2ccc(NC(=O)Nc3ccncc3)cc2)nc(N2CC3CCC(C2)O3)n1 [Example 174, 1-(4-{4-[2-methoxy-1-(methoxymethyl)ethoxy]-6-(8-oxa-3-azabicyclo[3.2.1]oct-3-yl)-1,3,5-triazin-2-yl}phenyl)-3-pyridin-4-ylurea]
- IC50 ([1]; Homo sapiens, LNCaP, 72 h): 4.25 nM
- IC50 (PI3K-α): 861 nM
- IC50 (Human mTOR (FLAG-TOR)): 2.1 nM
- IC50 (PI3K-γ; read-out: IC50 PI3Kγ): 727 nM
